Tests used:
[1] = test system: splicing defects associated with myotonic dystrophy; settings: Warf et al. 2009; cited from earlier work
[2] = Toxicity in mouse at end of metformin treatment; type: in vivo, C57BL/6NCr1 mouse; settings: 200 and 600 mg/Kg/day by gavage
From the text: Enhancement of Ank2 exon 21 and Capzb exon 8 inclusion, INSR exon 11 and Nfix exon […] exclusion or Alp exons 5a and 5b alternative splicing associated to a rescuing effect of DM1 missplicings in mouse skeletal muscle were observed.

DM1 cells = experiment: Toxicity on repeated daily treatment of DM1 cells; settings: 10 mM repeated daily for up to 10 days
[3] = test system: pre-mRNA splicing (Ank2, Capzb, INSR, Nfix, Alp); settings: higher dose (600 mg/Kg/day), mouse heart
DM1 myoblasts = experiment: Splicing in immortalized myoblasts from DM1 patients; type: cell-based, human
From the text: FIGS. 4A and 4B. Effects of AMPK activators on INSR splicing defect in immortalized myoblasts or freshly isolated peripheral blood lymphocytes (PBLs) from DM1 patients.

[4] = test system: INSR splicing (±exon 11) in DM1 MPCs; experiment: INSR splicing (±exon 11, INSR-A/INSR-B ratio) by quantitative PCR in DM1 MPCs; type: cell-based, human
[5] = test system: cTNT splicing (±exon 5), pRG6 minigene; experiment: cTNT splicing (±exon 5) by RT-PCR in MPCs transfected with pRG6 minigene; type: cell-based, human; settings: 25 mM, DM1 MPCs
From the text: FIG. 1E cTNT splicing (±exon 5) in WT and DM1 MPCs cotransfected with the indicated expression vectors and the pSG (d) or pRG6 (e) minigenes respectively (means ±s.d., n=3).
TNNT2 (cTNT) was chosen because, opposite to INSR, abnormal splicing in DM1 leads to the inclusion of an exon (exon 5)^4. As TNNT2 is not expressed in MPCs, cells were transfected with the RG6 minigene^13 based upon the chicken orthologue.

WT MPCs = experiment: INSR and cTNT splicing in WT cells; type: cell-based, human

Row | SMILES | splicing defects associated with myotonic dystrophy [1] | toxicity at the end of the treatment period [2] | toxicity (DM1 cells) | INSR exon 11 exclusion in the heart [3] | INSR transcript exon 11 (DM1 myoblasts) | SERCA1 transcript exon 22 (DM1 myoblasts) | ZASP transcript exon 10 (DM1 myoblasts) | endogenous human cTNT transcript exon 5 (DM1 myoblasts) | corrective effect on INSR splicing after repeated treatment ([4]; 10 mM daily for up to 10 days) | INSR splicing (±exon 11) rescue ([4]; 24 h-treatment, increasing concentrations) | exogenous cTNT splicing (±exon 5) [5] | exogenous cTNT splicing (±exon 5) ([5]; listed as Metformin) | "MBNL1-related" splicing of the two genes (INSR, cTNT) (WT MPCs)
1 | N=C(N)c1ccc(OCCCCCOc2ccc(C(=N)N)cc2)cc1 [Pentamidine, pentamidine] | reverses the splicing defects | – | – | – | – | – | – | – | – | – | – | – | –
2 | CN(C)C(=N)N=C(N)N [metformin] | – | No sign of toxicity | no observed toxicity | enhancement of INSR exon 11 exclusion was also observed | exon 11 inclusion | exon 22 inclusion | exon 10 skipping | exon 5 skipping | maintained corrective effect | partially rescues | decreased inclusion of exon 5 | restores | efficient in facilitating

— patent US20140187595A1 (INSERM (Institut National de la Sante et de la Recherche …, priority 2010, published 2014)
